Laboratory results as given in EPA's CvTdb concentration-time database.

Assays:
[1] = system: Rat; test: concentration in plasma after dosing; settings: dosed: Bis 2-Chloroethoxy Methane, 40 mg/kg, iv, Male, Harlan Sprague Dawley
[2] = system: Rat; test: concentration in heart after dosing; settings: 3 h; dosed: Bis 2-Chloroethoxy Methane; 20 mg/kg; iv; Male; F344
[3] = system: Rat; test: concentration in liver after dosing; settings: 10 min; dosed: Bis 2-Chloroethoxy Methane; 20 mg/kg; iv; Male; F344
[4] = system: Rat; test: concentration in plasma after dosing; settings: 1 h; dosed: Bis 2-Chloroethoxy Methane; 20 mg/kg; iv; Male; F344
[5] = system: Rat; test: concentration in liver after dosing; settings: 3 h; dosed: Bis 2-Chloroethoxy Methane; 20 mg/kg; iv; Male; F344
[6] = system: Rat; test: concentration in brain after dosing; settings: 3 h; dosed: Fluorotelomer alcohol 8+2; 80 mg/kg; oral; Female; Harlan Sprague Dawley
[7] = system: Rat; test: concentration in plasma after dosing; settings: dosed: Fluorotelomer alcohol 8+2, 12 mg/kg, oral, Male, Harlan Sprague Dawley
[8] = system: Rat; test: concentration in plasma after dosing; settings: 5 min; dosed: Di-n-butyl phthalate; 20 mg/kg; iv; Male; Sprague-Dawley
[9] = system: Rat; test: concentration in plasma after dosing; settings: 1 h; dosed: Di-n-butyl phthalate; 50 mg/kg; oral; Male; Sprague-Dawley
[10] = system: Rat; test: concentration in plasma after dosing; settings: dosed: Perfluorodecanoic acid, 2 mg/kg, iv, Male, F344
[11] = system: Rat; test: concentration in kidney after dosing; settings: 1848 h; dosed: Perfluorodecanoic acid; 10 mg/kg; oral; Female; Harlan Sprague Dawley
[12] = system: Rat; test: concentration in heart after dosing; settings: 20 min; dosed: Thiodiglycolic Acid; 20 mg/kg; iv; Female; Harlan Sprague Dawley
[13] = system: Rat; test: concentration in plasma after dosing; settings: 20 min; dosed: Thiodiglycolic Acid; 20 mg/kg; iv; Female; F344
[14] = system: Rat; test: concentration in liver after dosing; settings: 10 min; dosed: Thiodiglycolic Acid; 20 mg/kg; iv; Male; F344
[15] = system: Rat; test: concentration in plasma after dosing; settings: 1 h; dosed: Thiodiglycolic Acid; 20 mg/kg; iv; Female; Harlan Sprague Dawley
[16] = system: Rat; test: concentration in liver after dosing; settings: 3 h; dosed: Thiodiglycolic Acid; 20 mg/kg; iv; Female; Harlan Sprague Dawley
[17] = system: Rat; test: concentration in heart after dosing; settings: 3 h; dosed: Thiodiglycolic Acid; 20 mg/kg; iv; Female; Harlan Sprague Dawley
[18] = system: rat; test: concentration in blood after dosing; settings: dosed: p-tert-octylphenol, Sprague-Dawley

ClCCOCOCCCl [Bis 2-Chloroethoxy Methane]
[1]
Settings	concentration in plasma [ng/mL]
6.667 h	25.4
20 min	8380

Settings	concentration in heart [ng/g]	concentration in liver [ng/g]	concentration in plasma [ng/mL]
[2]	179	–	–
[3]	–	5360	–
[4]	–	–	1320
[5]	–	130	–

OCCC(F)(F)C(F)(F)C(F)(F)C(F)(F)C(F)(F)C(F)(F)C(F)(F)C(F)(F)F [Fluorotelomer alcohol 8+2]
Settings	concentration in brain [ng/g]
[6]	9550

[7]
Settings	concentration in plasma [ng/mL]
0.25 h	183
6 h	27.9

CCCCOC(=O)c1ccccc1C(=O)O [Mono-n-butyl phthalate]
Settings	concentration in plasma [ng/mL]
[8]	38500
[9]	8650

O=C(O)C(F)(F)C(F)(F)C(F)(F)C(F)(F)C(F)(F)C(F)(F)C(F)(F)C(F)(F)C(F)(F)F [Perfluorodecanoic acid]
[10]
Settings	concentration in plasma [ng/mL]
1 h	6390
528 h	2520
3360 h	267

Settings	concentration in kidney [ng/g]
[11]	11800

O=C(O)CSCC(=O)O [Thiodiglycolic Acid]
Settings	concentration in heart [ng/g]	concentration in liver [ng/g]	concentration in plasma [ng/mL]
[12]	6060	–	–
[13]	–	–	7410
[14]	–	155000	–
[15]	–	–	4150
[16]	–	3470	–
[17]	1150	–	–

CC(C)(C)CC(C)(C)c1ccc(O)cc1 [octylphenol]
concentration in blood [ng/mL], [18]
Settings	female	male
0.1573 h, 2 mg/kg, iv	–	159
0.1576 h, 4 mg/kg, iv	–	317
0.1581 h, 8 mg/kg, iv	–	942
0.1679 h, 2 mg/kg, iv	116	–
0.1763 h, 4 mg/kg, iv	283	–
0.1763 h, 8 mg/kg, iv	852	–
0.4805 h, 8 mg/kg, iv	–	376
0.4823 h, 125 mg/kg, oral	–	157
0.4883 h, 2 mg/kg, iv	–	63.6
0.4888 h, 4 mg/kg, iv	–	169
0.499 h, 250 mg/kg, oral	–	244
0.5015 h, 50 mg/kg, oral	–	63.7
0.5164 h, 2 mg/kg, iv	67.8	–
0.5164 h, 4 mg/kg, iv	141	–
0.5164 h, 8 mg/kg, iv	430	–
0.519 h, 125 mg/kg, oral	159	–
0.5202 h, 250 mg/kg, oral	222	–
0.5529 h, 50 mg/kg, oral	136	–
0.8196 h, 2 mg/kg, iv	–	46.6
0.8247 h, 8 mg/kg, iv	–	258
0.8286 h, 4 mg/kg, iv	–	107
0.8355 h, 2 mg/kg, iv	43.6	–
0.8355 h, 4 mg/kg, iv	89.6	–
0.8397 h, 8 mg/kg, iv	303	–
0.9901 h, 250 mg/kg, oral	–	379
0.9911 h, 125 mg/kg, oral	–	219
0.9923 h, 50 mg/kg, oral	–	116
1.038 h, 125 mg/kg, oral	271	–
1.051 h, 50 mg/kg, oral	87.5	–
1.147 h, 8 mg/kg, iv	–	210
1.155 h, 2 mg/kg, iv	–	28.8
1.16 h, 4 mg/kg, iv	–	69.7
1.167 h, 2 mg/kg, iv	23.8	–
1.167 h, 4 mg/kg, iv	71	–
1.167 h, 8 mg/kg, iv	229	–
1.486 h, 2 mg/kg, iv	–	24.8
1.487 h, 8 mg/kg, iv	–	169
1.499 h, 8 mg/kg, iv	170	–
1.5 h, 4 mg/kg, iv	–	59.3
1.503 h, 2 mg/kg, iv	25.3	–
1.503 h, 4 mg/kg, iv	59	–
1.994 h, 2 mg/kg, iv	16.1	–
1.994 h, 4 mg/kg, iv	46.2	–
1.994 h, 8 mg/kg, iv	128	–
2.003 h, 2 mg/kg, iv	–	22.4
2.003 h, 4 mg/kg, iv	–	39.3
2.004 h, 8 mg/kg, iv	–	122
2.038 h, 125 mg/kg, oral	235	–
2.052 h, 50 mg/kg, oral	109	–
2.08 h, 250 mg/kg, oral	–	305
2.081 h, 50 mg/kg, oral	–	128
2.081 h, 125 mg/kg, oral	–	171
2.989 h, 4 mg/kg, iv	–	23.4
2.993 h, 8 mg/kg, iv	–	72.1
2.998 h, 2 mg/kg, iv	15.9	–
2.998 h, 4 mg/kg, iv	33.8	–
3.015 h, 8 mg/kg, iv	101	–
3.991 h, 4 mg/kg, iv	–	12.2
3.996 h, 8 mg/kg, iv	–	40.2
3.997 h, 8 mg/kg, iv	57.6	–
4.014 h, 4 mg/kg, iv	21.7	–
4.016 h, 50 mg/kg, oral	70	–
4.022 h, 250 mg/kg, oral	320	–
4.03 h, 250 mg/kg, oral	–	260
4.031 h, 125 mg/kg, oral	–	160
4.032 h, 50 mg/kg, oral	–	85.1
4.038 h, 125 mg/kg, oral	268	–
6.016 h, 50 mg/kg, oral	69.2	–
6.02 h, 125 mg/kg, oral	210	–
6.021 h, 250 mg/kg, oral	268	–
6.034 h, 250 mg/kg, oral	–	192
6.07 h, 50 mg/kg, oral	–	87
6.07 h, 125 mg/kg, oral	–	123
7.933 h, 50 mg/kg, oral	–	77.3
8 h, 50 mg/kg, oral	93.2	–
8.003 h, 125 mg/kg, oral	205	95.8
8.005 h, 250 mg/kg, oral	357	–
8.019 h, 250 mg/kg, oral	–	210
11.97 h, 250 mg/kg, oral	373	–
11.98 h, 50 mg/kg, oral	69.7	–
11.99 h, 50 mg/kg, oral	–	37.2
11.99 h, 125 mg/kg, oral	–	84.2
11.99 h, 250 mg/kg, oral	–	157
12.02 h, 125 mg/kg, oral	209	–
24.01 h, 50 mg/kg, oral	24.7	–
24.02 h, 250 mg/kg, oral	–	107
24.03 h, 50 mg/kg, oral	–	7.77
24.03 h, 125 mg/kg, oral	63.5	–
24.04 h, 125 mg/kg, oral	–	28.8
24.04 h, 250 mg/kg, oral	307	–

concentration in blood [ng/mL], [18], 125 mg/kg
Settings	0.5035 h	0.5155 h	1.054 h	2.015 h	4.058 h	5.98 h	8.091 h	12.04 h	24.03 h
female	–	19	–	–	–	–	–	–	–
male	23.9	–	39.1	61.8	90.3	102	180	122	54.7
